Test results published in article PMC5840523, “Assessment of a pretomanid analogue library for African trypanosomiasis: Hit-to-lead studies on 6-substituted 2-nitro-6,7-dihydro-5H-imidazo[2,1-b][1,3]thiazine 8-oxides” (Bioorganic & Medicinal Chemistry Letters, 2018).
Values after ≈ are worked out from the molar mass of the structure shown. Where two headings read alike, the source gives them in different places.

Experiments:
in vitro = details: dog, MDCK-MDR1, Permeability Papp
[1] = Mouse pharmacokinetics (plasma, whole blood, brain); format: in vivo, male CD-1 mice; details: male, CD-1, mouse; for bioavailability: po; for Vd: read-out: Vdss; for half-life: read-out: t1/2 (converted)
Description: In order to determine the suitability of the more permeable hits for in vivo efficacy studies, we first measured their aqueous solubilities, and their tendencies to metabolise, following a 1 h incubation with CD-1 mouse liver S9 subcellular fractions.[14] […] This led us to probe their in vivo pharmacokinetic (PK) profiles in mice, examining concentration levels in plasma, whole blood and brain tissue following both intravenous and oral administration (Table 2; for further experimental details, see the Supporting Information). […]
Mouse Pharmacokinetics. The in-life portion of PK testing was carried out by ViviSource Laboratories, Inc., Mass achusetts, USA, and PK samples were anal ysed by Sc ynexis, Inc.
Test compounds (9, 12, 17, and 19) w er e each administered as single doses to groups of 10 male CD-1 mice by bolus intravenous injection or oral gavage. Intravenous dosing (at a nominal dose of 2 mg/kg) emplo yed a solution vehicle comprising either 20% EtOH, 20% propylene gl ycol, and 30% PEG -400 in normal saline (for powders 9, 17, and 19) or 0.5% (hydrox yprop yl)meth ylcellulose, 0.4% Tween 80, 0.5% benz yl alcohol, and 20% DMSO i n deionised water (for oil 12). […]
in 0.5% methylcellulose, 0.08% Tween 80 in water ( ex cept fo r oil 12, where the formulation additionally contained 20% DMSO). […]

T. b. rhodesiense = T. b. rhodesiense growth inhibition (University of Antwerp); format: cell-based, Trypanosoma brucei rhodesiense; details: mean of 2 to 5 determinations, read-out: IC50 T. b. rhod
T. b. brucei 427 [2] = assay: T. b. brucei growth inhibition (University of Antwerp); format: cell-based, Trypanosoma brucei brucei; details: T. b. brucei 427, mean of 2 to 5 determinations, read-out: IC50 T. b. bruc
Leishmania infantum = assay: L. infantum growth inhibition (University of Antwerp); format: cell-based; details: mean of 2 to 5 determinations
Trypanosoma cruzi = assay: T. cruzi growth inhibition (University of Antwerp); format: cell-based; details: mean of 2 to 5 determinations
Mouse liver S9 stability = format: in vitro ADME; details: CD-1, mouse, mouse liver S9 subcellular fraction, half-life in mouse liver S9 fraction; read-out: Mouse S9 t1/2
T. b. brucei 427 [3] = assay: T. b. brucei 427 growth inhibition (Scynexis); format: cell-based, Trypanosoma brucei brucei; details: for Selectivity Index: L929 vs T. b. brucei; for IC50: Trypanosoma brucei, growth inhibition of T. b. brucei 427, mean ± SD
[4] = system: human lung fibroblasts (MRC-5 cells); assay: Cytotoxicity toward MRC-5 cells (University of Antwerp); format: cell-based; details: Homo sapiens, MRC5, cytotoxicity toward human lung fibroblasts
[5] = Kinetic aqueous solubility in pH 7.4 PBS; format: physicochemical
Source text: Table 1 Inhibitory potency, metabolic stability, aqueous solubility, and MDCK-MDR1 cell permeability for 15 screening hits against T. b. brucei. | column: Solubility ^c / (µg/mL)

L929 mouse fibroblasts = assay: Cytotoxicity toward L929 mouse fibroblasts (Scynexis); format: cell-based
T. b. brucei (TREU 667) = assay: CNS (stage 2, chronic) HAT infection mouse model; format: in vivo, T. b. brucei; female Swiss Webster mice
Description: Therefore, 24 was examined in a stage 1 HAT mouse model.[14] Briefly, dosing was orally once daily for four days, starting 24 h postinfection, and parasitemia was assessed weekly via tail vein blood smears (see the Supporting Information). Excellent activity was observed (Table 4), with 24 providing complete cures (i.e. parasite free blood smears after >30 days) to all mice at doses as low as 5 mg/kg, similar to the control drug pentamidine (given i.p. at 2 mg/kg), whereas the vehicle only mice died on day 7. […]
Mouse Model for Chronic HAT Inf ection. Compound 24 was tested for in vi vo efficac y against chronic HAT infection caused b y T. b. brucei (TREU 667 strain) at the Haskin s Laboratories, Pace Universit y. […]
suspension formulation (0.8% CMC, 0.1% SDS in water) to groups of 8 or 10infected f emal e Swiss Webster mice, starting 21 d postinfection, according to a report ed method. 5 Animals remaining parasite free for more than 180 da ys beyond the end of the treatment period were […]

[6] = brain, from dose normalised AUClast values, read-out: F (oral bioavailability)
[7] = over the three sampling sites (plasma, whole blood, brain), read-out: oral bioavailability
[8] = whole blood, from dose normalised AUClast values, read-out: F (oral bioavailability)
[9] = brain, intravenous, corrected doses 0.5, 1.1, 2.9, 2.0 mg/kg for 9, 12, 17, 19
[10] = brain, oral, corrected doses 62, 50, 78, 49 mg/kg for 9, 12, 17, 19
[11] = plasma, intravenous, corrected doses 0.5, 1.1, 2.9, 2.0 mg/kg for 9, 12, 17, 19
[12] = plasma, oral, corrected doses 62, 50, 78, 49 mg/kg for 9, 12, 17, 19
[13] = whole blood, intravenous, corrected doses 0.5, 1.1, 2.9, 2.0 mg/kg for 9, 12, 17, 19
[14] = whole blood, oral, corrected doses 62, 50, 78, 49 mg/kg for 9, 12, 17, 19
[15] = 10 mg/kg single i.p. dose on day 4
[16] = 10 mg/kg single i.p. dose on day 21

CSc1ccc(OCc2ncc([N+](=O)[O-])n2C)cc1 [Compound 4, fexinidazole, reference compound]
Papp at 1 h, 3 µM (in vitro): 73.2 ×10⁻⁶ cm/s

O=[N+]([O-])c1cn2c(n1)[S+]([O-])CC(OCc1ccc(OCc3ccccc3)cc1)C2 (centres unmarked) [Compound 9]
bioavailability ([1]; 0.5 mg/kg, plasma, from dose normalised AUClast values, read-out: F (oral bioavailability)): 1.4%
bioavailability [1, 6]: 0.8%
bioavailability [1, 7]: < 1.5%
bioavailability [1, 8]: 0.8%
AUC(0-t) [1, 9]: 304 ng·h/mL
clearance [1, 9]: 25 mL/min/kg
Vd [1, 9]: 1.2 L/kg
half-life [1, 9]: 96 min
AUC(0-t) [1, 10]: 290 ng·h/mL
Cmax [1, 10]: 60 ng/mL
Tmax [1, 10]: 2 h
half-life [1, 10]: 192 min
AUC(0-t) [1, 11]: 505 ng·h/mL
clearance [1, 11]: 16.2 mL/min/kg
Vd [1, 11]: 0.59 L/kg
half-life [1, 11]: 25.8 min
AUC(0-t) [1, 12]: 869 ng·h/mL
Cmax [1, 12]: 200 ng/mL
Tmax [1, 12]: 2 h
half-life [1, 12]: 222 min
AUC(0-t) [1, 13]: 489 ng·h/mL
clearance [1, 13]: 14.5 mL/min/kg
Vd [1, 13]: 0.33 L/kg
half-life [1, 13]: 25.2 min
AUC(0-t) [1, 14]: 494 ng·h/mL
Cmax [1, 14]: 110 ng/mL
Tmax [1, 14]: 2 h
half-life [1, 14]: 318 min
IC50 (T. b. rhodesiense; Trypanosoma brucei, RHODESIENSE): 27 nM
IC50 (T. b. brucei 427 [2]; Trypanosoma brucei): 30 nM
IC50 (Leishmania infantum; Leishmania infantum): 3.4 µM
IC50 (Trypanosoma cruzi; Trypanosoma cruzi): 120 nM
half-life (Mouse liver S9 stability): 173 min
Papp at 1 h, 3 µM (in vitro): 77.1 ×10⁻⁶ cm/s
Selectivity Index (T. b. brucei 427 [3]): >667
IC50 (T. b. brucei 427 [3]): 0.015 ± 0.005 µg/mL (≈ 0.0363 µM)
IC50 [4]: 64 µM
solubility [5]: 5.4 µg/mL (≈ 13.1 µM)
IC50 (L929 mouse fibroblasts): > 10 µg/mL

CC1(COCc2ccc(OCc3ccccc3)cc2)Cn2cc([N+](=O)[O-])nc2[S+]1[O-] (centres unmarked) [Compound 11]
half-life (Mouse liver S9 stability): < 70 min
Papp at 1 h, 3 µM (in vitro): 65.1 ×10⁻⁶ cm/s
Selectivity Index (T. b. brucei 427 [3]): >77
IC50 (T. b. brucei 427 [3]): 0.13 ± 0.04 µg/mL (≈ 0.304 µM)
solubility [5]: 1.3 µg/mL (≈ 3.04 µM)
IC50 (L929 mouse fibroblasts): > 10 µg/mL

O=[N+]([O-])c1cn2c(n1)[S+]([O-])CC(OCc1ccc(OC(F)(F)F)cc1)C2 (centres unmarked) [Compound 12]
bioavailability [1, 6]: 55%
bioavailability [1, 7]: 52 to 55%
bioavailability ([1]; plasma, from dose normalised AUClast values, read-out: F (oral bioavailability)): 55%
bioavailability [1, 8]: 52%
AUC(0-t) [1, 9]: 2850 ng·h/mL
clearance [1, 9]: 6.67 mL/min/kg
Vd [1, 9]: 1.3 L/kg
half-life [1, 9]: 138 min
AUC(0-t) [1, 10]: 71200 ng·h/mL
Cmax [1, 10]: 14000 ng/mL
Tmax [1, 10]: 4 h
half-life [1, 10]: 414 min
AUC(0-t) [1, 11]: 2090 ng·h/mL
clearance [1, 11]: 8.67 mL/min/kg
Vd [1, 11]: 1.6 L/kg
half-life [1, 11]: 150 min
AUC(0-t) [1, 12]: 51900 ng·h/mL
Cmax [1, 12]: 9300 ng/mL
Tmax [1, 12]: 4 h
half-life [1, 12]: 414 min
AUC(0-t) [1, 13]: 2700 ng·h/mL
clearance [1, 13]: 6.5 mL/min/kg
Vd [1, 13]: 1.7 L/kg
half-life [1, 13]: 558 min
AUC(0-t) [1, 14]: 63500 ng·h/mL
Cmax [1, 14]: 8600 ng/mL
Tmax [1, 14]: 4 h
half-life [1, 14]: 348 min
IC50 (T. b. rhodesiense): 250 nM
IC50 (T. b. brucei 427 [2]): 270 nM
IC50 (Leishmania infantum): 16 µM
IC50 (Trypanosoma cruzi): 1500 nM
half-life (Mouse liver S9 stability): > 350 min
Papp at 1 h, 3 µM (in vitro): 79.8 ×10⁻⁶ cm/s
Selectivity Index (T. b. brucei 427 [3]): >63
IC50 (T. b. brucei 427 [3]): 0.16 ± 0.07 µg/mL (≈ 0.409 µM)
IC50 [4]: 60 µM
solubility [5]: 39 µg/mL (≈ 99.7 µM)
IC50 (L929 mouse fibroblasts): > 10 µg/mL

O=[N+]([O-])c1cn2c(n1)SC(COCc1ccc(OCc3ccccc3)cc1)C2 (centres unmarked) [Compound 15]
half-life (Mouse liver S9 stability): < 70 min
Papp at 1 h, 3 µM (in vitro): 58.3 ×10⁻⁶ cm/s
Selectivity Index (T. b. brucei 427 [3]): >22
IC50 (T. b. brucei 427 [3]): 0.46 ± 0.21 µg/mL (≈ 1.16 µM)
solubility [5]: 1.2 µg/mL (≈ 3.02 µM)
IC50 (L929 mouse fibroblasts): > 10 µg/mL

CC1(COCc2ccc(OCc3ccccc3)cc2)Cn2cc([N+](=O)[O-])nc2S1 (centres unmarked) [Compound 20]
Papp at 1 h, 3 µM (in vitro): 46.5 ×10⁻⁶ cm/s
Selectivity Index (T. b. brucei 427 [3]): >4.5
IC50 (T. b. brucei 427 [3]): 2.2 ± 0.7 µg/mL (≈ 5.35 µM)
solubility [5]: 1.2 µg/mL (≈ 2.92 µM)
IC50 (L929 mouse fibroblasts): > 10 µg/mL

COc1ccc(-c2ccc(O[C@@H]3COc4nc([N+](=O)[O-])cn4C3)nc2)cn1 [Compound 21]
half-life (Mouse liver S9 stability): 239 min
Papp at 1 h, 3 µM (in vitro): 76.9 ×10⁻⁶ cm/s
Selectivity Index (T. b. brucei 427 [3]): >3.7
IC50 (T. b. brucei 427 [3]): 2.7 ± 0.5 µg/mL (≈ 7.31 µM)
solubility [5]: 18 µg/mL (≈ 48.7 µM)
IC50 (L929 mouse fibroblasts): > 10 µg/mL

O=[N+]([O-])c1cn2c(n1)OC[C@@H](Oc1cc(-c3ccc(C(F)(F)F)nc3)ccn1)C2 [Compound 22]
half-life (Mouse liver S9 stability): 146 min
Papp at 1 h, 3 µM (in vitro): 79.3 ×10⁻⁶ cm/s
Selectivity Index (T. b. brucei 427 [3]): >3.6
IC50 (T. b. brucei 427 [3]): 2.8 ± 0.2 µg/mL (≈ 6.87 µM)
solubility [5]: 10 µg/mL (≈ 24.6 µM)
IC50 (L929 mouse fibroblasts): > 10 µg/mL

CN1CC(OCc2ccc(OCc3ccccc3)cc2)Cn2nc([N+](=O)[O-])cc21 (centres unmarked) [Compound 23]
half-life (Mouse liver S9 stability): < 70 min
Papp at 1 h, 3 µM (in vitro): 36.3 ×10⁻⁶ cm/s
Selectivity Index (T. b. brucei 427 [3]): >3.3
IC50 (T. b. brucei 427 [3]): 3 ± 0.9 µg/mL (≈ 7.61 µM)
solubility [5]: 2.4 µg/mL (≈ 6.08 µM)
IC50 (L929 mouse fibroblasts): > 10 µg/mL

Berenil [reference compound]
Cured (T. b. brucei (TREU 667); [15]): 100%
Cured/Total (T. b. brucei (TREU 667); [15]): 5/5
Cured (T. b. brucei (TREU 667); [16]): 0%
Cured/Total (T. b. brucei (TREU 667); [16]): 0/5
Mean relapse time (T. b. brucei (TREU 667); [16]): 41 days
